{"source": "patent US20090130085A1", "about": "“Amidino-Compounds for Stabilizing Factor VII Polypeptide Formulations” (NOVO NORDISH HEALTHCARE AG, priority 2005, published 2009)", "biological_target": "T1, rhFVIIa (Homo sapiens, UniProt P08709)", "T1 construct": "Typically, Factor VII is cleaved between amino acid residues 152 and 153 to yield Factor VIIa", "T1 sequence (P08709 61-212 limits assumed)": "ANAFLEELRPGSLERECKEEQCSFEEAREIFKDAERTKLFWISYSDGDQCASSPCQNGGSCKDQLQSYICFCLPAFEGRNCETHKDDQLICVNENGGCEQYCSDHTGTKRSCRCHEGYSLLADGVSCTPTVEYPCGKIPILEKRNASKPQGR", "T1 sequence (P08709 213-466 limits assumed)": "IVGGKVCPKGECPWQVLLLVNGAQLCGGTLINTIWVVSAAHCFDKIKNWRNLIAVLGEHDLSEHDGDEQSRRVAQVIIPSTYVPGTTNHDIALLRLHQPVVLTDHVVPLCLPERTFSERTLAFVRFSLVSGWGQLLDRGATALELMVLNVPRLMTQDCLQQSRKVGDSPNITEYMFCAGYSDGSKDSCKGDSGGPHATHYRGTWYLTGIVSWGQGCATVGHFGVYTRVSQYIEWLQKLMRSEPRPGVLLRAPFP", "assay": "Clot assay / one-stage coagulation assay of stored rhFVIIa formulations", "type": "biochemical", "conditions": "1 mM compound in 1.0 mg/mL rhFVIIa formulation, pH 6.5, stored at 5° C. and 25° C.", "from_the_text": "The biological activity of Factor VII (as Factor VIIa) in blood clotting derives from its ability to (i) bind to tissue factor (TF) and (ii) catalyze the proteolytic cleavage of Factor IX or Factor X to produce activated Factor IX or X (Factor IXa or Xa, respectively). Human Factor VIIa biological activity may be quantified by an assay measuring the ability of a preparation to promote blood clotting using Factor VII-deficient plasma and thromboplastin, as described, e.g., in U.S. Pat. No. 5,997,864. In this assay, biological activity is expressed as the reduction in clotting time relative to a control sample and is converted to “Factor VII units” by comparison with a pooled human […] standard containing 1 unit/ml Factor VII activity. […] Coagulation times (clotting times) are measured and compared to a standard curve using a reference standard in a parallel line assay. Alternatively, Factor VIIa biological activity may be quantified by (i) measuring the ability of Factor VIIa to produce Factor Xa in a system comprising TF embedded in a lipid membrane and Factor X. (Persson et al., J. Biol. Chem. 272:19919-19924, 1997); (ii) measuring Factor X hydrolysis in an aqueous system; (iii) measuring its physical binding to TF using an instrument based on surface plasmon resonance (Persson, FEBS Letts. 413:359-363, 1997) and (iv) measuring hydrolysis of a synthetic substrate. […]", "data": [{"smiles": "COc1cccc([C@H](C)NC(=O)COC(=O)Nc2ccc(C(=N)N)cc2)c1", "note": "[Example 1, (S)-(4-carbamimidoylphenyl)carbamic acid [1-(3-methoxyphenyl)ethylcarbamoyl]methyl ester]", "values": [{"measurement": "stabilizing effect with respect to retention of activity of FVIIa", "value": "marked stabilizing effect"}]}]}
